Source: ChEMBL document CHEMBL4673391, “Multiresidue Tetrapeptide Substitutions Yield a 140-fold Selective Melanocortin-3 over Melanocortin-4 Receptor Agonist” (ACS Med Chem Lett, 2021)

Key:
[1] = target: Melanocyte-stimulating hormone receptor (Mus musculus, UniProt Q01727); assay: Agonist activity at mouse melanocortin receptor 1 expressed in HEK293 cells assessed as stimulation of cAMP accumulation incubated for 2 hrs by cAMP Alpha-screen assay; type: functional, cell-based
Melanocortin receptor 5 = Melanocortin receptor 5 (Mus musculus, UniProt P41149); assay: Agonist activity at mouse melanocortin receptor 5 expressed in HEK293 cells assessed as stimulation of cAMP accumulation incubated for 2 hrs by cAMP Alpha-screen assay; type: functional, cell-based
Melanocortin receptor 3 = Melanocortin receptor 3 (Mus musculus, UniProt P33033); assay: Agonist activity at mouse melanocortin receptor 3 expressed in HEK293 cells assessed as stimulation of cAMP accumulation incubated for 2 hrs by cAMP Alpha-screen assay; type: functional, cell-based
[2] = target: Melanocortin receptor 4 (Mus musculus) (UniProt P56450); assay: Agonist activity at mouse melanocortin receptor 4 expressed in HEK293 cells assessed as stimulation of cAMP accumulation at 100 uM incubated for 2 hrs by cAMP Alpha-screen assay relative to control; type: functional, cell-based
Melanocortin receptor 4 [3] = target: T1, Melanocortin receptor 4 (Mus musculus, UniProt P56450); assay: Antagonist activity at mouse melanocortin receptor 4 expressed in HEK293 cells assessed as inhibition of NDP-MSH-induced cAMP accumulation incubated for 2 hrs by cAMP Alpha-screen assay based Schild analysis; type: functional, cell-based; details: for Kb: read-out: pA2 (converted)
Mus musculus [4] = organism: Mus musculus; assay: Selectivity index, ratio of Ki for mouse melanocortin receptor 4 expressed in HEK293 cells to EC50 for mouse melanocortin receptor 3 expressed in HEK293 cells assessed as stimulation of cAMP accumulation incubated for 2 hrs by cAMP Alpha-screen assay; type: cell-based
[5] = target: Melanocyte-stimulating hormone receptor (Mus musculus) (UniProt Q01727); assay: Partial agonist activity at mouse melanocortin receptor 1 expressed in HEK293 cells assessed as stimulation of cAMP accumulation incubated for 2 hrs by cAMP Alpha-screen assay relative to NDP-MSH; type: functional, cell-based; details: filed as partial agonist
Melanocortin receptor 4 [6] = target: T1, Melanocortin receptor 4; assay: Agonist activity at mouse melanocortin receptor 4 expressed in HEK293 cells assessed as stimulation of cAMP accumulation incubated for 2 hrs by cAMP Alpha-screen assay; type: functional, cell-based
Mus musculus [7] = organism: Mus musculus; assay: Selectivity index, ratio of EC50 for mouse melanocortin receptor 4 expressed in HEK293 cells to EC50 for mouse melanocortin receptor 3 expressed in HEK293 cells assessed as stimulation of cAMP accumulation incubated for 2 hrs by cAMP Alpha-screen assay; type: cell-based

T1 sequence (P56450 whole entry): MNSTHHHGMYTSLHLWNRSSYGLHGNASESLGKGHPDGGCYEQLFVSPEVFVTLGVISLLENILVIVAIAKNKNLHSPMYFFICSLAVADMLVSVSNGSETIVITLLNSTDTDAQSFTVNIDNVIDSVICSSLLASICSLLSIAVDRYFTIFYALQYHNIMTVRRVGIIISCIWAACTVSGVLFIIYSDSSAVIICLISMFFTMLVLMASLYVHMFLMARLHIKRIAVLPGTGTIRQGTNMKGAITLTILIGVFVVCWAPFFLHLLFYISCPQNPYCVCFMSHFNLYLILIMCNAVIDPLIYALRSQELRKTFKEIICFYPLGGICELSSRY
Chain of Melanocortin receptor 4 (Mus musculus) (P56450 whole entry): as above
Chain of Melanocortin receptor 5 (P41149 whole entry): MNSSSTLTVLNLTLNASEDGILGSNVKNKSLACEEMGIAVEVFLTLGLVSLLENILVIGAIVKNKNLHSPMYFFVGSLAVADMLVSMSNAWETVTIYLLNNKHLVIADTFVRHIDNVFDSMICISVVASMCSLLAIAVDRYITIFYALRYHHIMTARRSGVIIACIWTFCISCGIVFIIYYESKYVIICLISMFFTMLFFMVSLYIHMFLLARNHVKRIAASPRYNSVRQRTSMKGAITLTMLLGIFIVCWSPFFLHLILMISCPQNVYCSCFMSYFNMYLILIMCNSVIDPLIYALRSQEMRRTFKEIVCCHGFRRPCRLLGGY
Chain of Melanocortin receptor 3 (P33033 whole entry): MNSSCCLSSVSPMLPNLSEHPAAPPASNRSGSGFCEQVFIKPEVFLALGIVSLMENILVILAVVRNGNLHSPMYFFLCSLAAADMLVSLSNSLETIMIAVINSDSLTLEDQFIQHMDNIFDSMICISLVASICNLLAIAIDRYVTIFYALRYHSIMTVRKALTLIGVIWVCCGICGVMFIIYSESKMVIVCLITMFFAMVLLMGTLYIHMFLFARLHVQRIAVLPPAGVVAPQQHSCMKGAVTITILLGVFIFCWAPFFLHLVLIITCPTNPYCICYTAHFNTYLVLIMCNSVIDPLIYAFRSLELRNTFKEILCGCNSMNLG
Chain of Melanocyte-stimulating hormone receptor (Q01727 whole entry): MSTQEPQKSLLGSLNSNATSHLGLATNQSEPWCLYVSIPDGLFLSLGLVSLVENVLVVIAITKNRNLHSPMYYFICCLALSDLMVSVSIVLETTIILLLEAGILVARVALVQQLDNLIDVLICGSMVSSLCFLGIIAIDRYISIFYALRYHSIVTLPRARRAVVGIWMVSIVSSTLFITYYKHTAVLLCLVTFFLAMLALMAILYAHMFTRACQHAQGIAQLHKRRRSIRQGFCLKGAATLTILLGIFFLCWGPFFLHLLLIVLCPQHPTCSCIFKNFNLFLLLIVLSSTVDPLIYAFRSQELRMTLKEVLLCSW
Chain of Melanocyte-stimulating hormone receptor (Mus musculus) (Q01727 whole entry, looked up): as the sequence (Q01727 whole entry) above

EC50 [1]	EC50 (Melanocortin receptor 5)	EC50 (Melanocortin receptor 3)	Activity ([2]; filed as agonist)	Ki (Melanocortin receptor 4 [3])	Kb (Melanocortin receptor 4 [3])	Activity [2]	Activity [5]	EC50 (Melanocortin receptor 4 [6])	SMILES	Selectivity ratio (Mus musculus [4])	Ratio EC50 (Mus musculus [7])
0.06 µM	0.0164 µM	0.066 µM	40%	2 µM	2 µM				CC(=O)N[C@@H](CCCNC(=N)N)C(=O)N[C@@H](CCC(N)=O)C(=O)N[C@H](Cc1ccc(-c2ccccc2)cc1)C(=O)N1Cc2ccccc2C[C@H]1C(N)=O	30	
0.08 µM	0.031 µM	0.11 µM		> 10 µM	> 10 µM	20%	85%		CC(=O)N[C@H](C(=O)N[C@@H](CCC(N)=O)C(=O)N[C@H](Cc1ccc(-c2ccccc2)cc1)C(=O)N1Cc2ccccc2C[C@H]1C(N)=O)C(C)C	> 90	
0.123 µM	0.039 µM	0.11 µM	50%	3.98 µM	3.98 µM				CC(=O)N[C@@H](Cc1c[nH]cn1)C(=O)N[C@@H](CCC(N)=O)C(=O)N[C@H](Cc1ccc(-c2ccccc2)cc1)C(=O)N1Cc2ccccc2C[C@@H]1C(N)=O	36	
0.00023 µM	0.0035 µM	0.011 µM		0.125 µM	0.126 µM	35%			CC(=O)N[C@@H](CCCNC(=N)N)C(=O)N[C@@H](CCCNC(=N)N)C(=O)N[C@H](Cc1ccc(-c2ccccc2)cc1)C(=O)N1Cc2ccccc2C[C@H]1C(N)=O	11	
0.0017 µM	0.025 µM	0.036 µM		0.25 µM	0.251 µM	35%			CC(=O)N[C@H](C(=O)N[C@@H](CCCNC(=N)N)C(=O)N[C@H](Cc1ccc(-c2ccccc2)cc1)C(=O)N1Cc2ccccc2C[C@@H]1C(N)=O)C(C)C	7	
0.15 µM	0.036 µM	0.07 µM	40%	> 10 µM	> 10 µM		75%		CC(=O)N[C@H](C(=O)N[C@@H](CCC(N)=O)C(=O)N[C@H](Cc1ccc(-c2ccccc2)cc1)C(=O)N1Cc2ccccc2C[C@@H]1C(N)=O)C(C)C	> 140	
0.0011 µM	0.018 µM	0.04 µM		0.4 µM	0.398 µM	10%			CC(=O)N[C@H](C(=O)N[C@@H](CCCNC(=N)N)C(=O)N[C@H](Cc1ccc(-c2ccccc2)cc1)C(=O)N1Cc2ccccc2C[C@H]1C(N)=O)C(C)C	10	
0.0006 µM	0.0057 µM	0.014 µM	40%	0.16 µM	0.158 µM				CC(=O)N[C@@H](CCCNC(=N)N)C(=O)N[C@@H](CCCNC(=N)N)C(=O)N[C@H](Cc1ccc(-c2ccccc2)cc1)C(=O)N1Cc2ccccc2C[C@@H]1C(N)=O	11	
0.011 µM	0.0056 µM	0.014 µM						0.4 µM	CC(=O)N[C@@H](CCCNC(=N)N)C(=O)N[C@@H](CCC(N)=O)C(=O)N[C@H](Cc1ccc(-c2ccccc2)cc1)C(=O)N1Cc2ccccc2C[C@@H]1C(N)=O		28
0.16 µM	0.031 µM	0.15 µM		10 µM	10 µM	20%			CC(=O)N[C@@H](Cc1c[nH]cn1)C(=O)N[C@@H](CCC(N)=O)C(=O)N[C@H](Cc1ccc(-c2ccccc2)cc1)C(=O)N1Cc2ccccc2C[C@H]1C(N)=O	65	

SMILES	EC50 [1]	EC50 (Melanocortin receptor 5)	EC50 (Melanocortin receptor 3)	Activity ([2]; filed as agonist)	Ki (Melanocortin receptor 4 [3])	Kb (Melanocortin receptor 4 [3])	Activity [2]	Activity [5]	EC50 (Melanocortin receptor 4 [6])	Selectivity ratio (Mus musculus [4])	Ratio EC50 (Mus musculus [7])
CC(=O)N[C@@H](Cc1c[nH]cn1)C(=O)N[C@@H](CCCNC(=N)N)C(=O)N[C@H](Cc1ccc(-c2ccccc2)cc1)C(=O)N1Cc2ccccc2C[C@H]1C(N)=O	0.0005 µM	0.009 µM	0.022 µM		0.32 µM	0.316 µM	35%			14	
CC(=O)N[C@@H](Cc1c[nH]cn1)C(=O)N[C@@H](CCCNC(=N)N)C(=O)N[C@H](Cc1ccc(-c2ccccc2)cc1)C(=O)N1Cc2ccccc2C[C@@H]1C(N)=O	0.0009 µM	0.026 µM	0.039 µM		0.32 µM	0.316 µM	35%			8	
